pIC50, pKi: −log10 of the molar value. Where a name gives a salt, the structure may show the parent alone. Read-outs that look alike come from different tables or passages of the source.
Experiments:
Experiment in all cases: Eurofins SafetyScreen panel
Progesterone PR-B = target: T1, Progesterone PR-B (Homo sapiens, UniProt P06401); assay type: binding
T1 construct: Eurofins (contract assay)

Dopamine D3 = target: T2, Dopamine D3 (Homo sapiens, UniProt P35462); assay type: binding
T2 construct: Eurofins (contract screening) 219800
T2 sequence (P35462 whole entry): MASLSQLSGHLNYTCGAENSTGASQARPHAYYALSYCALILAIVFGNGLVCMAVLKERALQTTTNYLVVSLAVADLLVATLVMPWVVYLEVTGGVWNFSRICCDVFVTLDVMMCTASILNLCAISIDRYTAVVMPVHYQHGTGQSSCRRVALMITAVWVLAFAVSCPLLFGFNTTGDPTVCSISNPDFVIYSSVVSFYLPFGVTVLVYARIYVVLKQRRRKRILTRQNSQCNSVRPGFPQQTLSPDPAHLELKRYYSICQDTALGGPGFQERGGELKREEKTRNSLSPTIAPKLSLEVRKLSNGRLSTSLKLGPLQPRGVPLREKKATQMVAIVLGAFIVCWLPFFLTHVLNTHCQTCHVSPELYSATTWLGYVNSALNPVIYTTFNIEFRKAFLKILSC

Tachykinin NK1 = target: T3, Tachykinin NK1 (Homo sapiens, UniProt P25103); assay type: binding
T3 construct: Eurofins (contract assay)
T3 sequence (P25103 whole entry): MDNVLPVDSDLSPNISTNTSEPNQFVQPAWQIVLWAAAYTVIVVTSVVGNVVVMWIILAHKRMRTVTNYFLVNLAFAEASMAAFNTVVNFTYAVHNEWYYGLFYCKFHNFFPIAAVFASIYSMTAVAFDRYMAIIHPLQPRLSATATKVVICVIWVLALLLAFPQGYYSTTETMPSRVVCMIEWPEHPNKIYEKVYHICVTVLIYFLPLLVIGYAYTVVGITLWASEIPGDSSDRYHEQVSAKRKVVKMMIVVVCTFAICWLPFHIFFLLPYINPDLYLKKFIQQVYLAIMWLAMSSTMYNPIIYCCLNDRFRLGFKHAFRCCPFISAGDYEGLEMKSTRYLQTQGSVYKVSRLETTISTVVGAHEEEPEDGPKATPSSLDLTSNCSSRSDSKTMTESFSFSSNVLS

COX-2 = target: T4, COX-2 (Homo sapiens, UniProt P35354); assay type: biochemical
T4 construct: Eurofins
T4 sequence (P35354 18-604): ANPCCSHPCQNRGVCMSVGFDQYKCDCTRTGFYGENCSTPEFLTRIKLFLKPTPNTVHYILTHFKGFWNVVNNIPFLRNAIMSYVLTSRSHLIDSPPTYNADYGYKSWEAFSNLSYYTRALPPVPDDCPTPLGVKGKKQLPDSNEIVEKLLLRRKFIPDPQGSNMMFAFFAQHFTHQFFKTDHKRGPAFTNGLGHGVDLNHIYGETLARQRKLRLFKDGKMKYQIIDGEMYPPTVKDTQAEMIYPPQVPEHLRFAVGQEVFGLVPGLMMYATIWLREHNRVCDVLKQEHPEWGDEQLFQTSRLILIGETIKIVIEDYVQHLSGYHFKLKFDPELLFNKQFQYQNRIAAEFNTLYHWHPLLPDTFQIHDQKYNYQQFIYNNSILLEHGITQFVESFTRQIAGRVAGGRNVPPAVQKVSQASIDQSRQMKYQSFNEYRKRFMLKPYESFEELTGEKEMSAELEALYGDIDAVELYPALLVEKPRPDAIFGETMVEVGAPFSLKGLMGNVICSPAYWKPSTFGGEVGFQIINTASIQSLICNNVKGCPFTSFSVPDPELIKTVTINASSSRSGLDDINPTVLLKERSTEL

Sigma σ1 = target: T5, Sigma σ1 (Homo sapiens, UniProt Q99720); assay type: binding
T5 construct: Eurofins (contract assay) 278110
T5 sequence (Q99720 whole entry): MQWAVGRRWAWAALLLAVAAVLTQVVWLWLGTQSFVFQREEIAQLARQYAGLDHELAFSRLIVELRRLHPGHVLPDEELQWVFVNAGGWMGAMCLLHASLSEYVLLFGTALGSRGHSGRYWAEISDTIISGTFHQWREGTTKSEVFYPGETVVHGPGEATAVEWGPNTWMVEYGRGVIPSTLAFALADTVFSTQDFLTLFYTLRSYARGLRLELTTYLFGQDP

T1 sequence (P06401 whole entry): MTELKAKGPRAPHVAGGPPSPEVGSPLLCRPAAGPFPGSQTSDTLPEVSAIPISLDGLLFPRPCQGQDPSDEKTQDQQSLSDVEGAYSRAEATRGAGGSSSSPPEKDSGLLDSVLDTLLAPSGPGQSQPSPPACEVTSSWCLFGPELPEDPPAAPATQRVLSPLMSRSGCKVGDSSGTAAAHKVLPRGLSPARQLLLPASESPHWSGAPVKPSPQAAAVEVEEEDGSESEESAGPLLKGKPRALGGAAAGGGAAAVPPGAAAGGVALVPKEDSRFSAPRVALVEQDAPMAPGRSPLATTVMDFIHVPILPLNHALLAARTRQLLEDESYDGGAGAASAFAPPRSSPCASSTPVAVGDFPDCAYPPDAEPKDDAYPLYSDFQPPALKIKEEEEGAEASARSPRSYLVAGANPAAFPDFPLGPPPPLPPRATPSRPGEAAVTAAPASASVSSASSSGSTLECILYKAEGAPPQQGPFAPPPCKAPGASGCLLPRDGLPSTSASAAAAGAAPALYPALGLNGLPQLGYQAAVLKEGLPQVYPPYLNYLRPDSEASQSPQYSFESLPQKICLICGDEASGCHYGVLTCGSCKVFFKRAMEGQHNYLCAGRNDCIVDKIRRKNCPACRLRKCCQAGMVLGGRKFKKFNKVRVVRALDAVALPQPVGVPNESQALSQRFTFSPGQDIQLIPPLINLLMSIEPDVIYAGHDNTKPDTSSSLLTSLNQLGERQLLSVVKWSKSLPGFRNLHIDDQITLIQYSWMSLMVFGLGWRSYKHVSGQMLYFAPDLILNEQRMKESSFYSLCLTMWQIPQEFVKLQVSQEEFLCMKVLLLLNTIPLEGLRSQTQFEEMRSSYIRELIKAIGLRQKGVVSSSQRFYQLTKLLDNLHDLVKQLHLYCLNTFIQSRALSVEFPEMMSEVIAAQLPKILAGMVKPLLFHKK

For `O=S(=O)(c1cccc(F)c1)n1ccc2c(N3CCNCC3)nc3ccccc3c21` [FPPQ, 1-[(3-Fluorophenyl)sulfonyl]-4-(piperazin-1-yl)-1H-pyrrolo[3,2-c]quinoline dihydrochloride], the inhibition at 10 µM (Progesterone PR-B) was 21%, the pIC50 (Dopamine D3) was 6.20 and the pKi (Dopamine D3) was 6.68. For the same compound, the inhibition at 0.01 µM (Dopamine D3; read-out: %inh, 10 nM) was -2%, the inhibition at 0.1 µM (Dopamine D3; read-out: %inh, 0.1 μM) was 14% and the inhibition at 1 µM (Dopamine D3; read-out: %inh, 1 μM) was 63%. It also gave an inhibition at 10 µM (Dopamine D3; read-out: %inh, 10 μM) of 89%, an inhibition at 10 µM (Dopamine D3; read-out: %inh, 10 μM, additional batch) of 90% and a pIC50 (Tachykinin NK1) of 4.86. It also gave a pKi (Tachykinin NK1) of 5.00, an inhibition at 0.1 µM (Tachykinin NK1; 0.1 μM) of 0% and an inhibition at 1 µM (Tachykinin NK1; 1 μM) of 10%. It also gave an inhibition at 10 µM (Tachykinin NK1) of 40%, an inhibition at 10 µM (Tachykinin NK1; additional batch) of 58% and an inhibition at 100 µM (Tachykinin NK1; 100 μM) of 92%. It also gave an inhibition at 10 µM (COX-2) of -13%, a pIC50 (Sigma σ1) of 5.08 and a pKi (Sigma σ1) of 5.46. It also gave an inhibition at 0.1 µM (Sigma σ1; read-out: %inh) of 7%, an inhibition at 1 µM (Sigma σ1; read-out: %inh) of 18% and an inhibition at 10 µM (Sigma σ1; read-out: %inh) of 51%. For the same compound, the inhibition at 100 µM (Sigma σ1; read-out: %inh) was 89%.

Reference: article PMC8474115 (Journal of Medicinal Chemistry, 2021)
